In brackets after ≈: the same amount, converted by molar mass.

This passage reports MIC results from ChEMBL document CHEMBL5143590, “Dihydropyrimidinone imidazoles as unique structural antibacterial agents for drug-resistant gram-negative pathogens” (Eur J Med Chem, 2022).

Type in all cases: functional
Assay [1] has as its system Staphylococcus aureus. The experiment in a line: Antibacterial activity against methicillin-resistant Staphylococcus aureus N315 assessed as inhibition of bacterial growth by two fold serial dilution method.
A further assay deals with Enterococcus faecalis. In words: Antibacterial activity against Enterococcus faecalis assessed as inhibition of bacterial growth by two fold serial dilution method.
The subject of assay [2] is Staphylococcus aureus. In words: Antibacterial activity against Staphylococcus aureus assessed as inhibition of bacterial growth by two fold serial dilution method.
Assay [3] concerns Staphylococcus aureus. The experiment in a line: Antibacterial activity against Staphylococcus aureus 25923 assessed as inhibition of bacterial growth by two fold serial dilution method.
Assay [4] has as its system Staphylococcus aureus. In words: Antibacterial activity against Staphylococcus aureus 29213 assessed as inhibition of bacterial growth by two fold serial dilution method.
Another assay concerns Klebsiella pneumoniae. The experiment in a line: Antibacterial activity against Klebsiella pneumoniae assessed as inhibition of bacterial growth by two fold serial dilution method.
The test system of assay [5] is Escherichia coli. In words: Antibacterial activity against Escherichia coli assessed as inhibition of bacterial growth by two fold serial dilution method.
For assay [6], the system named is Escherichia coli. In words: Antibacterial activity against Escherichia coli 25922 assessed as inhibition of bacterial growth by two fold serial dilution method.
Assay [7] relates to Pseudomonas aeruginosa. The experiment in a line: Antibacterial activity against Pseudomonas aeruginosa assessed as inhibition of bacterial growth by two fold serial dilution method.
Assay [8] relates to Pseudomonas aeruginosa. The experiment in a line: Antibacterial activity against Pseudomonas aeruginosa 27853 assessed as inhibition of bacterial growth by two fold serial dilution method.
Another assay has as its system Acinetobacter baumannii. The experiment in a line: Antibacterial activity against Acinetobacter baumannii assessed as inhibition of bacterial growth by two fold serial dilution method.

For `CCCCc1nc(Cl)c(C2NC(=O)NC(CNS(=O)(=O)c3ccc(N)cc3)=C2C(=O)OCC)[nH]1` (stereo not given), the MIC in the assay with Staphylococcus aureus [1] is 256 µg/mL (≈ 501 µM); with Enterococcus faecalis it was 256 µg/mL (≈ 501 µM); in the assay on Staphylococcus aureus [2], 128 µg/mL (≈ 250 µM); in the assay with Staphylococcus aureus [3] it was 256 µg/mL (≈ 501 µM); in the assay with Staphylococcus aureus [4], 256 µg/mL (≈ 501 µM); in the assay with Klebsiella pneumoniae, 256 µg/mL (≈ 501 µM). Further, the MIC in the assay with Escherichia coli [5] turned out to be 256 µg/mL (≈ 501 µM); with Escherichia coli [6] it was 256 µg/mL (≈ 501 µM); in the assay on Pseudomonas aeruginosa [7] it was 256 µg/mL (≈ 501 µM); with Pseudomonas aeruginosa [8] it was 256 µg/mL (≈ 501 µM); with Acinetobacter baumannii, 128 µg/mL (≈ 250 µM).
As for `CCCCc1nc(Cl)c(C2NC(=O)NC(C)=C2C(=O)OCC)n1CC` (stereo not given), the minimal inhibitory concentration (MIC) in the assay on Staphylococcus aureus [1] was 64 µg/mL (≈ 174 µM); with Enterococcus faecalis, 64 µg/mL (≈ 174 µM); in the assay with Staphylococcus aureus [2], 64 µg/mL (≈ 174 µM); with Staphylococcus aureus [3], 128 µg/mL (≈ 347 µM); in the assay with Staphylococcus aureus [4], 256 µg/mL (≈ 694 µM); in the assay with Klebsiella pneumoniae it was 64 µg/mL (≈ 174 µM). Also, the MIC in the assay on Escherichia coli [5] worked out at 64 µg/mL (≈ 174 µM); in the assay on Escherichia coli [6] it was 32 µg/mL (≈ 86.8 µM); in the assay on Pseudomonas aeruginosa [7], 64 µg/mL (≈ 174 µM); with Pseudomonas aeruginosa [8] it was 128 µg/mL (≈ 347 µM); in the assay with Acinetobacter baumannii, 128 µg/mL (≈ 347 µM).
For `CCCCc1nc(Cl)c(C2NC(=O)NC(C)=C2C(=O)OCC)n1CC(=O)N1CCOCC1` (stereo not given), the minimal inhibitory concentration (MIC) amounted to 64 µg/mL (≈ 137 µM) in the assay on Staphylococcus aureus [1]; 128 µg/mL (≈ 274 µM) with Enterococcus faecalis; 64 µg/mL (≈ 137 µM) in the assay on Staphylococcus aureus [2]; 128 µg/mL (≈ 274 µM) in the assay on Staphylococcus aureus [3]; 64 µg/mL (≈ 137 µM) in the assay with Staphylococcus aureus [4]; 32 µg/mL (≈ 68.4 µM) in the assay on Klebsiella pneumoniae. Also, the MIC with Escherichia coli [5] was determined as 128 µg/mL (≈ 274 µM); in the assay with Escherichia coli [6] it was 256 µg/mL (≈ 547 µM); with Pseudomonas aeruginosa [7], 64 µg/mL (≈ 137 µM); in the assay with Pseudomonas aeruginosa [8] it was 256 µg/mL (≈ 547 µM); in the assay on Acinetobacter baumannii, 128 µg/mL (≈ 274 µM).
For `CCCCc1nc(Cl)c(C2NC(=O)NC(C)=C2C(=O)OCC)n1Cc1ccc(Cl)c(Cl)c1` (stereo not given), the MIC in the assay with Staphylococcus aureus [1] turned out to be 32 µg/mL (≈ 64 µM); in the assay on Enterococcus faecalis it was 64 µg/mL (≈ 128 µM); with Staphylococcus aureus [2], 32 µg/mL (≈ 64 µM); in the assay with Staphylococcus aureus [3], 32 µg/mL (≈ 64 µM); in the assay on Staphylococcus aureus [4], 64 µg/mL (≈ 128 µM); with Klebsiella pneumoniae, 64 µg/mL (≈ 128 µM). Besides, the MIC was found to be 128 µg/mL (≈ 256 µM) with Escherichia coli [5]; 64 µg/mL (≈ 128 µM) with Escherichia coli [6]; 128 µg/mL (≈ 256 µM) in the assay with Pseudomonas aeruginosa [7]; 64 µg/mL (≈ 128 µM) with Pseudomonas aeruginosa [8]; 128 µg/mL (≈ 256 µM) with Acinetobacter baumannii.
On to `CCCCc1nc(Cl)c(C2NC(=O)NC(C)=C2C(=O)OCC)n1Cc1ccc(C)cc1` (stereo not given), for which the MIC was determined as 128 µg/mL (≈ 288 µM) with Staphylococcus aureus [1]; 64 µg/mL (≈ 144 µM) in the assay with Enterococcus faecalis; 64 µg/mL (≈ 144 µM) in the assay with Staphylococcus aureus [2]; 64 µg/mL (≈ 144 µM) with Staphylococcus aureus [3]; 64 µg/mL (≈ 144 µM) in the assay with Staphylococcus aureus [4]; 128 µg/mL (≈ 288 µM) in the assay on Klebsiella pneumoniae. The MIC with Escherichia coli [5] is 32 µg/mL (≈ 71.9 µM); in the assay on Escherichia coli [6], 32 µg/mL (≈ 71.9 µM); in the assay with Pseudomonas aeruginosa [7], 128 µg/mL (≈ 288 µM); in the assay with Pseudomonas aeruginosa [8] it was 64 µg/mL (≈ 144 µM); in the assay on Acinetobacter baumannii, 64 µg/mL (≈ 144 µM).
Turning to `NC1CCN(c2c(F)cc3c(=O)c(C(=O)O)cn(C4CC4)c3c2Cl)C1` (stereo not given) [CLINAFLOXACIN], the MIC in the assay on Staphylococcus aureus [1] worked out at 1 µg/mL (≈ 2.73 µM); in the assay with Enterococcus faecalis, 0.5 µg/mL (≈ 1.37 µM); in the assay on Staphylococcus aureus [2] it was 0.5 µg/mL (≈ 1.37 µM); in the assay with Staphylococcus aureus [3], 0.5 µg/mL (≈ 1.37 µM); in the assay with Staphylococcus aureus [4], 0.5 µg/mL (≈ 1.37 µM); in the assay with Klebsiella pneumoniae, 1 µg/mL (≈ 2.73 µM). Moreover, the MIC with Escherichia coli [5] was 0.5 µg/mL (≈ 1.37 µM); in the assay with Escherichia coli [6], 1 µg/mL (≈ 2.73 µM); in the assay on Pseudomonas aeruginosa [7] it was 1 µg/mL (≈ 2.73 µM); with Pseudomonas aeruginosa [8], 1 µg/mL (≈ 2.73 µM); in the assay with Acinetobacter baumannii, 2 µg/mL (≈ 5.47 µM).
In the case of `CCCCc1nc(Cl)c(C2NC(=O)NC(C)=C2C(=O)OCC)n1CCF` (stereo not given), the MIC was 128 µg/mL (≈ 331 µM) in the assay on Staphylococcus aureus [1]; 64 µg/mL (≈ 165 µM) with Enterococcus faecalis; 32 µg/mL (≈ 82.7 µM) with Staphylococcus aureus [2]; 64 µg/mL (≈ 165 µM) in the assay with Staphylococcus aureus [3]; 64 µg/mL (≈ 165 µM) with Staphylococcus aureus [4]; 128 µg/mL (≈ 331 µM) in the assay on Klebsiella pneumoniae. Moreover, the MIC in the assay on Escherichia coli [5] stood at 32 µg/mL (≈ 82.7 µM); in the assay on Escherichia coli [6], 128 µg/mL (≈ 331 µM); in the assay on Pseudomonas aeruginosa [7], 64 µg/mL (≈ 165 µM); in the assay on Pseudomonas aeruginosa [8] it was 64 µg/mL (≈ 165 µM); in the assay on Acinetobacter baumannii it was 64 µg/mL (≈ 165 µM).
Take `CCCCc1nc(Cl)c(C2NC(=O)NC(CN(c3nccs3)S(=O)(=O)c3ccc(N)cc3)=C2C(=O)OCC)[nH]1` (stereo not given): the MIC with Staphylococcus aureus [1] was determined as 128 µg/mL (≈ 215 µM); in the assay with Enterococcus faecalis, 256 µg/mL (≈ 431 µM); with Staphylococcus aureus [2], 256 µg/mL (≈ 431 µM); in the assay on Staphylococcus aureus [3] it was 256 µg/mL (≈ 431 µM); in the assay with Staphylococcus aureus [4] it was 256 µg/mL (≈ 431 µM); in the assay with Klebsiella pneumoniae, 256 µg/mL (≈ 431 µM). Besides, the MIC with Escherichia coli [5], in the assay with Escherichia coli [6], in the assay with Pseudomonas aeruginosa [7], in the assay with Pseudomonas aeruginosa [8] and in the assay on Acinetobacter baumannii was 256 µg/mL (≈ 431 µM) throughout.
`CCCCc1nc(Cl)c(C2NC(=O)NC(C)=C2C(=O)OCC)n1Cc1ccccc1Cl` (stereo not given): the MIC in the assay on Staphylococcus aureus [1] worked out at 16 µg/mL (≈ 34.4 µM); with Enterococcus faecalis, 32 µg/mL (≈ 68.8 µM); in the assay with Staphylococcus aureus [2] it was 32 µg/mL (≈ 68.8 µM); in the assay with Staphylococcus aureus [3] it was 16 µg/mL (≈ 34.4 µM); in the assay on Staphylococcus aureus [4] it was 128 µg/mL (≈ 275 µM); with Klebsiella pneumoniae, 128 µg/mL (≈ 275 µM). In addition, the MIC was 32 µg/mL (≈ 68.8 µM) with Escherichia coli [5]; 32 µg/mL (≈ 68.8 µM) with Escherichia coli [6]; 64 µg/mL (≈ 138 µM) with Pseudomonas aeruginosa [7]; 32 µg/mL (≈ 68.8 µM) with Pseudomonas aeruginosa [8]; 32 µg/mL (≈ 68.8 µM) in the assay with Acinetobacter baumannii.
For the molecule `CCCCc1nc(Cl)c(C2NC(=O)NC(C)=C2C(=O)OCC)n1Cc1ccc(Cl)cc1` (stereo not given), the MIC in the assay with Staphylococcus aureus [1], in the assay on Enterococcus faecalis, in the assay on Staphylococcus aureus [2], in the assay on Staphylococcus aureus [3], in the assay with Staphylococcus aureus [4] and in the assay with Klebsiella pneumoniae was 64 µg/mL (≈ 138 µM) in each case. Moreover, the MIC is 64 µg/mL (≈ 138 µM) with Escherichia coli [5]; 64 µg/mL (≈ 138 µM) in the assay on Escherichia coli [6]; 128 µg/mL (≈ 275 µM) with Pseudomonas aeruginosa [7]; 64 µg/mL (≈ 138 µM) in the assay on Pseudomonas aeruginosa [8]; 32 µg/mL (≈ 68.8 µM) in the assay with Acinetobacter baumannii.
